Measured values from ChEMBL document CHEMBL5465560, “Selectivity Literature for EUbOPEN Chemogenomic Library” (2024).
One block for each compound: values may come before it.

Assays:
[1] = biological target: Dual specificity mitogen-activated protein kinase kinase 1 (Homo sapiens, UniProt Q02750); experiment: Selectivity interaction (Kinase panel (literature)) EUB0001199aCl MAP2K1; settings: at 1 µM
[2] = biological target: Macrophage colony-stimulating factor 1 receptor (Homo sapiens) (UniProt P07333); experiment: Selectivity interaction (KinomeScan (DiscoverX)) EUB0001079a CSF1R; settings: at 1 µM
Macrophage colony-stimulating factor 1 receptor (Homo sapiens), sequence (P07333 whole entry): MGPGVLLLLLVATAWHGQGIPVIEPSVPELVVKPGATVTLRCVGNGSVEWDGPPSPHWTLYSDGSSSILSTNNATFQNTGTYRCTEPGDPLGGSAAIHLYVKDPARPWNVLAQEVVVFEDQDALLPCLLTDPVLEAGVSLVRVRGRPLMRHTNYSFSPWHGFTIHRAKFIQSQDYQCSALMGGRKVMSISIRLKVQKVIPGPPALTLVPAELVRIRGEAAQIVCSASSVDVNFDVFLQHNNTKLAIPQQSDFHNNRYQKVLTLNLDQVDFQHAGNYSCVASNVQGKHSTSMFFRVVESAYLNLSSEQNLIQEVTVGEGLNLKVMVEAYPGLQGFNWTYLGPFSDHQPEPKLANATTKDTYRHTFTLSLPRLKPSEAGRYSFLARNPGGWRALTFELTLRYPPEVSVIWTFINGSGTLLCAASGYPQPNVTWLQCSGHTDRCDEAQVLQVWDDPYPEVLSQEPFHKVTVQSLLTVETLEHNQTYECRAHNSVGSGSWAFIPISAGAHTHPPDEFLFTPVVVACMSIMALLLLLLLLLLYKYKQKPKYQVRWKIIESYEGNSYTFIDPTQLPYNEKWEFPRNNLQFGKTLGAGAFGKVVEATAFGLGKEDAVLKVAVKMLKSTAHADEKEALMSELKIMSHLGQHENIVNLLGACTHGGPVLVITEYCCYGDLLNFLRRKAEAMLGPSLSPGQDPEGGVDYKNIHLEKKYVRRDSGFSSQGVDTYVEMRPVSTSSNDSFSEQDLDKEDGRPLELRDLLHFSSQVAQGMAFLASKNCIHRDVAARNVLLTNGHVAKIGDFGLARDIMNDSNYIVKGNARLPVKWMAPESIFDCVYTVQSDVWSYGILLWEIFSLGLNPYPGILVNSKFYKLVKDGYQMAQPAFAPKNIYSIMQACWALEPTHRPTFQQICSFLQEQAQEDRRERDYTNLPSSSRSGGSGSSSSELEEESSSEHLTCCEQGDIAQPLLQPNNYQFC

[3] = biological target: T1, Ephrin type-B receptor 6 (Homo sapiens) (UniProt O15197); experiment: Selectivity interaction (KinomeScan (DiscoverX)) EUB0000618a EPHB6; settings: at 10 µM
T1 sequence (whole entry): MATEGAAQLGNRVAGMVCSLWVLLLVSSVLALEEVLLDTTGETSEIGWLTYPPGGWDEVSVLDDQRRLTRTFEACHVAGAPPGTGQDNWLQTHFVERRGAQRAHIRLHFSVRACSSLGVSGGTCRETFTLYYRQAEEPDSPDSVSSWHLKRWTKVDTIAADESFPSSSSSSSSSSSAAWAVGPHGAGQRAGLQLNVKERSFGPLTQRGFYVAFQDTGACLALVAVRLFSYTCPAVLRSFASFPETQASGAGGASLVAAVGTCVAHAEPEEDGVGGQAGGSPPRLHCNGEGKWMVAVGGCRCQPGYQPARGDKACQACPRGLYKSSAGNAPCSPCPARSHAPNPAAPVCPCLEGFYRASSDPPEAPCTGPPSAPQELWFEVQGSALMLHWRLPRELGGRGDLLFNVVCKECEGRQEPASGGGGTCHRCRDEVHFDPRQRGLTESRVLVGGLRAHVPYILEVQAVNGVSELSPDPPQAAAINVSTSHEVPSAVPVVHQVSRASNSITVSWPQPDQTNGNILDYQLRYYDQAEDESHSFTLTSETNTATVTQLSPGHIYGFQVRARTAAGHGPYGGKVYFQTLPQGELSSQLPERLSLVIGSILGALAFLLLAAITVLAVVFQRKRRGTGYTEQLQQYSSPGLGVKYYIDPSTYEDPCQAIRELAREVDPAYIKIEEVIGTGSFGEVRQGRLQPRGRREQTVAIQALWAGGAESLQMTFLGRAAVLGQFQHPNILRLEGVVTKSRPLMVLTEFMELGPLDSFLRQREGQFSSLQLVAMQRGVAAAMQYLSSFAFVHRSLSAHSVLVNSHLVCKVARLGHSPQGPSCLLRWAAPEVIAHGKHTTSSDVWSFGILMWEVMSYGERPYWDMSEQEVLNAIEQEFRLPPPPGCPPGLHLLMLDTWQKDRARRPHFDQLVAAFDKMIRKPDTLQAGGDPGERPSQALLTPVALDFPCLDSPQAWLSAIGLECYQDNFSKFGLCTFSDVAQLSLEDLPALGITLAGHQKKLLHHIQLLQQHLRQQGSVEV

[4] = biological target: T2, Mitogen-activated protein kinase kinase kinase 15 (Homo sapiens) (UniProt Q6ZN16); experiment: Selectivity interaction (KinomeScan (DiscoverX)) EUB0000595a MAP3K15; settings: at 10 µM
T2 sequence (whole entry): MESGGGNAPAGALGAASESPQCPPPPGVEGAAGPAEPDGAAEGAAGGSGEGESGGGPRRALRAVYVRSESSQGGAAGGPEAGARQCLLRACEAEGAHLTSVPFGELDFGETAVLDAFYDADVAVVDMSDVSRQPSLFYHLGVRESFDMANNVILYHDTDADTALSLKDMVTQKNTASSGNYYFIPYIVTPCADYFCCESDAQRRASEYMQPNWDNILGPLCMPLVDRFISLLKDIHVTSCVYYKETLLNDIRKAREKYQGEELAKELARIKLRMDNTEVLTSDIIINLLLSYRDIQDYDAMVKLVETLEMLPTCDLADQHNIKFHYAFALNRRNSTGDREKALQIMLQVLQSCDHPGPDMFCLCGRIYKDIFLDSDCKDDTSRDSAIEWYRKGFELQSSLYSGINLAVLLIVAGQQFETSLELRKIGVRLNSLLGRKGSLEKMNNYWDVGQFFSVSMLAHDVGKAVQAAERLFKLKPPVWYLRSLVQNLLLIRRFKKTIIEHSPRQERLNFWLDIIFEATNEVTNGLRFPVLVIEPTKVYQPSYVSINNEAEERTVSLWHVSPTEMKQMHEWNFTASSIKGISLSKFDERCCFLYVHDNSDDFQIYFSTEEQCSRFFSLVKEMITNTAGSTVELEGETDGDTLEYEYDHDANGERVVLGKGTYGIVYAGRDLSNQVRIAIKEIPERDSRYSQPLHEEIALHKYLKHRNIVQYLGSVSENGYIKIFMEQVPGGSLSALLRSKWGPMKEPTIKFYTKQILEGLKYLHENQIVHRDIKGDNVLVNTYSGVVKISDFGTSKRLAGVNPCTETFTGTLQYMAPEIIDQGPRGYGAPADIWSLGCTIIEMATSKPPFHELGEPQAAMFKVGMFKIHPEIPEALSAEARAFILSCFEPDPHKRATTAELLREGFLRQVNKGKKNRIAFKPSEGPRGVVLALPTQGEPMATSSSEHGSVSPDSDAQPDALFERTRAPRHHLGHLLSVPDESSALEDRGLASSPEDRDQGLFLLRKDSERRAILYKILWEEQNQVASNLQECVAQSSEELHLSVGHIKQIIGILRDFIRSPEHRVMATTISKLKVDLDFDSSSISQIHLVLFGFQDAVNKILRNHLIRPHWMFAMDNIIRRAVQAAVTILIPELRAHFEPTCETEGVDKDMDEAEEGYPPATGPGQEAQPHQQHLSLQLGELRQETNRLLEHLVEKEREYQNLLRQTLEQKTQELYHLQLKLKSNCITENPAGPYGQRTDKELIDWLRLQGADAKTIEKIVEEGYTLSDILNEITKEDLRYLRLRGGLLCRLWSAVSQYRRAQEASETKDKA

[5] = biological target: Serine/threonine-protein kinase WNK1 (Homo sapiens) (UniProt Q9H4A3); experiment: Selectivity interaction (ActivX KiNativ screen (kinase selectivity in THP-1 cell lysates)) EUB0000639a WNK1; format: subcellular; settings: lysate, at 1 µM
[6] = biological target: Mitogen-activated protein kinase kinase kinase 1 (Homo sapiens, UniProt Q13233); experiment: Selectivity interaction (ProQinase) EUB0000171b MAP3K1
Mitogen-activated protein kinase kinase kinase 1, sequence (Q13233 whole entry): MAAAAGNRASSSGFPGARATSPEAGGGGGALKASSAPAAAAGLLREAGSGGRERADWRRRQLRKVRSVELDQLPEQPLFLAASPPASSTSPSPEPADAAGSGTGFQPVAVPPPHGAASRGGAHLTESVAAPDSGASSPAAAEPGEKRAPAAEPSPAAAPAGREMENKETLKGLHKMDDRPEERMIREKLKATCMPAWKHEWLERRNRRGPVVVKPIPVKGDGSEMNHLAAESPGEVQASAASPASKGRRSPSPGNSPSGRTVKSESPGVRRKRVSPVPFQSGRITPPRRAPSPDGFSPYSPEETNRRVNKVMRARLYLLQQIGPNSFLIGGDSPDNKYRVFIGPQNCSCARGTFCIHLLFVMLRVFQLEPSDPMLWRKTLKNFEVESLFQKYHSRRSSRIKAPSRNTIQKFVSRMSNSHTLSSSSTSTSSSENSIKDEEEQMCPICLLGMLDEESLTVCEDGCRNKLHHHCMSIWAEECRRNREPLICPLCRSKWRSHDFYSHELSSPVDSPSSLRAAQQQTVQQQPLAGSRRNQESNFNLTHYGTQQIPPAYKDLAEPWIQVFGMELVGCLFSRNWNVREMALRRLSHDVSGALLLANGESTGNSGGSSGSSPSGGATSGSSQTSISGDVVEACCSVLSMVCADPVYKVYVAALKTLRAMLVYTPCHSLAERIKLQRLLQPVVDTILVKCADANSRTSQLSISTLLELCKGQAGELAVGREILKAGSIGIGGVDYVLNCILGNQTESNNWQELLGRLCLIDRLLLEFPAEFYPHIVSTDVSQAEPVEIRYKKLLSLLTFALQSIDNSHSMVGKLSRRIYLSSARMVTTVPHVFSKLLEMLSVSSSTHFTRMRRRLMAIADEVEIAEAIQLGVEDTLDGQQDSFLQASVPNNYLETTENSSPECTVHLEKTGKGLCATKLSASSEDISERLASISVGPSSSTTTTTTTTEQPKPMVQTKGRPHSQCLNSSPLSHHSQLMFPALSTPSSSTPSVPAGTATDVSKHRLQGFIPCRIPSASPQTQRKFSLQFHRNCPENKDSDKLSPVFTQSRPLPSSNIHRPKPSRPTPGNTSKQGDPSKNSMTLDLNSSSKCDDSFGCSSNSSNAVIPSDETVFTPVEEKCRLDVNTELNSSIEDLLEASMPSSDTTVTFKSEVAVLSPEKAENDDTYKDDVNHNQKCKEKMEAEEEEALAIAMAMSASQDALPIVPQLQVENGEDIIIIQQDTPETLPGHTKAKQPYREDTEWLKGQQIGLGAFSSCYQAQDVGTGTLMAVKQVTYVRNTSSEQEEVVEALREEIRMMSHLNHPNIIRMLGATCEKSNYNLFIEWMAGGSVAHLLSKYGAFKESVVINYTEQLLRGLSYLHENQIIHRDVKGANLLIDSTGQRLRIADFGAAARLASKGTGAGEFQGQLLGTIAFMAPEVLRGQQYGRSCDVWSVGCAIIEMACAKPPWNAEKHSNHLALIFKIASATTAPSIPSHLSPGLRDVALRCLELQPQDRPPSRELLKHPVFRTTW

B2 bradykinin receptor = B2 bradykinin receptor (Homo sapiens, UniProt P30411); experiment: Selectivity interaction (Bradykinin 2 receptor binding assay, human recombinant ) EUB0000877a BDKRB2
B2 bradykinin receptor, sequence (P30411 whole entry): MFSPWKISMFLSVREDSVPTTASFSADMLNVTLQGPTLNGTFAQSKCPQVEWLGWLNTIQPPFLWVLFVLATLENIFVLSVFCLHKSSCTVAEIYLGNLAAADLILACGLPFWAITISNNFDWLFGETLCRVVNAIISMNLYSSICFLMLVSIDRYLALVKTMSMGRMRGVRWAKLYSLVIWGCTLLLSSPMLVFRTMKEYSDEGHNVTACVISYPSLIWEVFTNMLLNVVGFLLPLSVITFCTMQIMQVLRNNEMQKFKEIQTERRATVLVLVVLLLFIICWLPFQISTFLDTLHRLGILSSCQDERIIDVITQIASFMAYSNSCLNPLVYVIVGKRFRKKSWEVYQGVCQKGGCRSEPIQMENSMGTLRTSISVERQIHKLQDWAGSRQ

[7] = biological target: Mitogen-activated protein kinase kinase kinase kinase 5 (Homo sapiens) (UniProt Q9Y4K4); experiment: Selectivity interaction (KinomeScan (DiscoverX)) EUB0000666a MAP4K5; settings: at 10 µM
Mitogen-activated protein kinase kinase kinase kinase 5 (Homo sapiens), sequence (Q9Y4K4 whole entry, looked up): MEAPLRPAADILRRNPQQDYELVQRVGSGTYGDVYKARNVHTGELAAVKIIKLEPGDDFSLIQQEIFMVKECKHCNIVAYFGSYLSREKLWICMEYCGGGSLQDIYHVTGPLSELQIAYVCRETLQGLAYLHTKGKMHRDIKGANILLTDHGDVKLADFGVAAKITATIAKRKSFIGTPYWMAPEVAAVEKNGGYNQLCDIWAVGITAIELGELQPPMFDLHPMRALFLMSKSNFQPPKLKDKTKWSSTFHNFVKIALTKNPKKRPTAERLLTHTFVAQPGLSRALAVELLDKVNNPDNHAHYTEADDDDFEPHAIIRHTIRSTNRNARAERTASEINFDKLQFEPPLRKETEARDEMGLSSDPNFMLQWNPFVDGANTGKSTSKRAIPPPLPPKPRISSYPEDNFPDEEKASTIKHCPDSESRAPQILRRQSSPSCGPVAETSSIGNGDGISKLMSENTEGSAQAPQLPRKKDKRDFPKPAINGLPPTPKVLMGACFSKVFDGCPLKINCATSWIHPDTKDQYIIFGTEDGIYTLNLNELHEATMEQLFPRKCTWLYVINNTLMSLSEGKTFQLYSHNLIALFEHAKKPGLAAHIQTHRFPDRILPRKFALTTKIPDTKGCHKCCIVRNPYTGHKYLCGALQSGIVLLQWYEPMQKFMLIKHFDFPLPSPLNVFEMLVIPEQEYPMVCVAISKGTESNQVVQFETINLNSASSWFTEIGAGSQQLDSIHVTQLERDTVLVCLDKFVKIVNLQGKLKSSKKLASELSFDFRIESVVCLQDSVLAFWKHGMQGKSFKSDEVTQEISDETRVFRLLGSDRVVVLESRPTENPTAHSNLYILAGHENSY

Dual specificity mitogen-activated protein kinase kinase 1, sequence (Q02750 whole entry): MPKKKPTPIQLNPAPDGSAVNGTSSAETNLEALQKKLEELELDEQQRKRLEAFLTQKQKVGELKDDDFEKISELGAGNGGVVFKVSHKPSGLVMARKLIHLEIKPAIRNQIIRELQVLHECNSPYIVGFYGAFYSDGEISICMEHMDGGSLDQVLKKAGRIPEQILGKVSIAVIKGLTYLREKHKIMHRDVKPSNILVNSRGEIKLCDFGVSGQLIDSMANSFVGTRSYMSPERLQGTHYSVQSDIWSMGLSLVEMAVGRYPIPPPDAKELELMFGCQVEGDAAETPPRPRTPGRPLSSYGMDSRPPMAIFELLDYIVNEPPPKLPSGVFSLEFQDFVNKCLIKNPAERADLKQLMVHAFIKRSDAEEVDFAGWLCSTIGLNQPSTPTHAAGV

% of inhibition [1]: -4%
Compound: CN1Cc2nccc(-c3cn(C)nc3-c3ccc(F)cc3)c2C1=O

Compound: Nc1cnc(N2CCc3cc(S(=O)(=O)Nc4c(F)cc(Cl)cc4F)cc(N4CCCC4=O)c32)nc1 [TP-020n]
% of control [2]: 100%

Compound: O[C@H]1CC[C@H](Nc2ncc3nc(Nc4c(F)cc(F)cc4F)n([C@H]4CCOC4)c3n2)CC1
% of control [3]: 7.8%

Compound: COCC(=O)NC/C=C/c1ccc2ncnc(Nc3ccc(Oc4ccc(C)nc4)c(C)c3)c2c1 [CP-724714]
% of control [4]: 100%

% of inhibition [5]: -7.7%
Compound: CC[C@@H]1[C@H](F)C(=O)N[C@@H]1COc1nccc2cc(C(N)=O)c(OC)cc12 [ZIMLOVISERTIB]

% of control ([6]; at 1 µM): 100% | % of control ([6]; at 5 µM): 96%
Compound: C=CC(=O)Nc1cccc(C(=O)Nc2ccc(Nc3cc(-c4[nH]c(SC)nc4C)ccn3)cc2)c1

IC50 (B2 bradykinin receptor): > 30 µM
Compound: CCC(=O)N1CC[C@H](Nc2ncnc3c2CN(c2cnc(OC)c(C(F)(F)F)c2)CC3)C1 [LENIOLISIB]

Compound: O=C(NOC[C@H](O)CO)c1ccc(F)c(F)c1Nc1ccc(I)cc1F
% of control [7]: 69%
